Test results reported in patent US9322066B2, “Predictors for cancer treatment” (priority 2011, dated 2016).

System: relapsed or refractory, rituximab-naive or -sensitive follicular B-cell NHL
Experiment: Time to next anti-lymphoma therapy, Vc-R vs rituximab study, by biomarker
Format: in vivo, human
Set-up: Median, Time to Next Anti-Lymphoma Therapy / Time to Next Anti-Lymphoma Therapy, Median: unit not given here
Source text: Non-Hodgkin lymphoma (NHL) encompasses several unique malignant lymphoid disease entities that vary in clinical behavior, morphologic appearance, immunologic, and molecular phenotype. […] A randomized, open-label, active-controlled, multicenter, multinational, prospective study to compare the efficacy and safety of the combination of bortezomib and rituximab (Vc-R) to single-agent rituximab in subjects who have relapsed or refractory, rituximab-naive or -sensitive follicular B-cell NHL was performed.
Subjects were centrally randomized to Treatment Groups A (Vc-R) or B (rituximab) in a 1:1 ratio taking into account the following stratification factors: • Follicular Lymphoma International Prognostic Index (FLIPI) score (low [0 or 1 factor], intermediate [2 factors], high [≧3 factors]); • Prior rituximab therapy (yes, no); • Time since last dose of anti-lymphoma therapy (≦1 year, >1 year); • Region (United States/Canada, European Union, Rest of World).
The following clinical endpoints were included in the analysis within each treatment group and an overall comparison was made with the biomarker-related endpoints: Progression-free survival, defined as the interval between the date of randomization and the date of progressive disease (PD) or death, whichever is first reported in the ITT population; overall survival; overall response rate (complete response [CR]+CR unconfirmed [CRu]+partial response [PR]); overall CR rate (CR+CRu); duration of response; time to next anti-lymphoma therapy; and treatment free interval.

[1] = CD68 POSITIVE PERIFOLLICULAR: 0-25, White, IRC Review
[2] = CD68 POSITIVE PERIFOLLICULAR: 0-25, ≦65 years old, IRC Review
[3] = CD68 POSITIVE PERIFOLLICULAR: 26-50, Other, IRC Review
[4] = CD68 POSITIVE PERIFOLLICULAR: >75, 1 Prior Line of Therapy, IRC Review
[5] = CD68 POSITIVE PERIFOLLICULAR: >75, European Union, IRC Review
[6] = CD68 POSITIVE PERIFOLLICULAR: >75, ≦65 years old, IRC Review
[7] = NOTCH/G_A1702P: MND, subgroup White, IRC review
[8] = NOTCH/I1681N: MND, subgroup White, IRC review
[9] = NOTCH/L1679P: MND, subgroup White, IRC review
[10] = NOTCH/L1679Q: MND, subgroup White, IRC review
[11] = NOTCH/L2458V: MND, subgroup White, IRC review
[12] = NOTCH/P2513L: MND, subgroup White, IRC review
[13] = NOTCH/P2515FS4: MND, subgroup White, IRC review
[14] = NOTCH/Q2441X: MND, subgroup White, IRC review
[15] = NOTCH/Q2460X: MND, subgroup White, IRC review
[16] = NOTCH/X26DEL: MND, subgroup White, IRC review
[17] = NOTCH/X26INS: MND, subgroup White, IRC review
[18] = NOTCH/X28DEL: MND, subgroup White, IRC review
[19] = NOTCH/X28INS: MND, subgroup White, IRC review
[20] = P27 % NUCLEI POSITIVE: 0-20, 1 Prior Line of Therapy, IRC Review
[21] = P27 % NUCLEI POSITIVE: 0-20, Ann Arbor Stage III, IRC Review
[22] = P27 % NUCLEI POSITIVE: 0-20, High Tumor Burden, IRC Review
[23] = P27 % NUCLEI POSITIVE: 0-20, ≦65 years old, IRC Review
[24] = P27 % NUCLEI POSITIVE: 30-50, High Tumor Burden, IRC Review
[25] = P27 % NUCLEI POSITIVE: 80-100, European Union, IRC Review
[26] = P27 SIGNAL INTENSITY: ≦1+, High Tumor Burden, IRC Review
[27] = P27 SIGNAL INTENSITY: ≧2+, 5 Prior Lines of Therapy, IRC Review
[28] = P27 SIGNAL INTENSITY: ≧2+, European Union, IRC Review
[29] = P27 SIGNAL INTENSITY: ≧2+, Prior Rituximab Therapy, IRC Review
[30] = P27 SIGNAL INTENSITY: ≧2+, White, IRC Review
[31] = P27 SIGNAL INTENSITY: ≧2+, ≦65 years old, IRC Review
[32] = P27 SIGNAL TENSITY: ≧2+, No Subgroup, IRC Review
[33] = P65 % NUCLEAR STAINING: 0, 1 Prior Line of Therapy, IRC Review
[34] = P65 % NUCLEAR STAINING: ≦5%, 2 Prior Lines of Therapy, IRC Review
[35] = P65 % NUCLEAR STAINING: ≦5%, 5 Prior Lines of Therapy, IRC Review
[36] = P65 % NUCLEAR STAINING: ≦5%, Prior Rituximab Therapy, IRC Review
[37] = P65 % NUCLEAR STAINING: ≦5%, ≦65 years old, IRC Review
[38] = P65 % POSITIVE CYTOPLASMIC SIGNAL: >90%, 1 Prior Line of Therapy, IRC Review
[39] = P65 % POSITIVE CYTOPLASMIC SIGNAL: >90%, >1 year since last anti- lymphoma treatment, IRC Review
[40] = P65 % POSITIVE CYTOPLASMIC SIGNAL: >90%, European Union, IRC Review
[41] = P65 % POSITIVE CYTOPLASMIC SIGNAL: >90%, Male, IRC Review
[42] = P65 % POSITIVE CYTOPLASMIC SIGNAL: >90%, No Subgroup, IRC Review
[43] = P65 % POSITIVE CYTOPLASMIC SIGNAL: >90%, White, IRC Review
[44] = P65 % POSITIVE CYTOPLASMIC SIGNAL: >90%, ≦65 years old, IRC Review
[45] = P65 INTENSITY CYTOPLASMIC SIGNAL: ≦1+, Ann Arbor Stage III, IRC Review
[46] = P65 INTENSITY CYTOPLASMIC SIGNAL: ≦1+, European Union, IRC Review
[47] = P65 INTENSITY CYTOPLASMIC SIGNAL: ≧2+, 1 Prior Line of Therapy, IRC Review
[48] = P65 INTENSITY CYTOPLASMIC SIGNAL: ≧2+, Female, IRC Review
[49] = P65 INTENSITY CYTOPLASMIC SIGNAL: ≧2+, White, IRC Review

Q: Which results are given for rituximab?
A: Evt/N, Time to Next Anti-Lymphoma Therapy [1]: 19/27; Median, Time to Next Anti-Lymphoma Therapy [1]: 501; Evt/N, Time to Next Anti-Lymphoma Therapy [2]: 20/31; Median, Time to Next Anti-Lymphoma Therapy [2]: 332; Evt/N, Time to Next Anti-Lymphoma Therapy [3]: 4/4; Median, Time to Next Anti-Lymphoma Therapy [3]: 341; Evt/N, Time to Next Anti-Lymphoma Therapy [4]: 15/18; Median, Time to Next Anti-Lymphoma Therapy [4]: 437; Evt/N, Time to Next Anti-Lymphoma Therapy [5]: 13/17; Median, Time to Next Anti-Lymphoma Therapy [5]: 675; Evt/N, Time to Next Anti-Lymphoma Therapy [6]: 19/23; Median, Time to Next Anti-Lymphoma Therapy [6]: 437; Evt/N, Time to Next Anti-Lymphoma Therapy [7]: 97/152; Median, Time to Next Anti-Lymphoma Therapy [7]: 504; Evt/N, Time to Next Anti-Lymphoma Therapy [8]: 97/152; Median, Time to Next Anti-Lymphoma Therapy [8]: 504; Evt/N, Time to Next Anti-Lymphoma Therapy [9]: 97/152; Median, Time to Next Anti-Lymphoma Therapy [9]: 504; Evt/N, Time to Next Anti-Lymphoma Therapy [10]: 97/152; Median, Time to Next Anti-Lymphoma Therapy [10]: 504; Evt/N, Time to Next Anti-Lymphoma Therapy [11]: 89/140; Median, Time to Next Anti-Lymphoma Therapy [11]: 504; Evt/N, Time to Next Anti-Lymphoma Therapy [12]: 78/122; Median, Time to Next Anti-Lymphoma Therapy [12]: 504; Evt/N, Time to Next Anti-Lymphoma Therapy [13]: 99/154; Median, Time to Next Anti-Lymphoma Therapy [13]: 505; Evt/N, Time to Next Anti-Lymphoma Therapy [14]: 88/139; Median, Time to Next Anti-Lymphoma Therapy [14]: 501; Evt/N, Time to Next Anti-Lymphoma Therapy [15]: 85/131; Median, Time to Next Anti-Lymphoma Therapy [15]: 501; Evt/N, Time to Next Anti-Lymphoma Therapy [16]: 99/155; Median, Time to Next Anti-Lymphoma Therapy [16]: 505; Evt/N, Time to Next Anti-Lymphoma Therapy [17]: 101/159; Median, Time to Next Anti-Lymphoma Therapy [17]: 533; Evt/N, Time to Next Anti-Lymphoma Therapy [18]: 111/169; Median, Time to Next Anti-Lymphoma Therapy [18]: 504; Evt/N, Time to Next Anti-Lymphoma Therapy [19]: 115/174; Median, Time to Next Anti-Lymphoma Therapy [19]: 504; Evt/N, Time to Next Anti-Lymphoma Therapy [20]: 19/26; Median, Time to Next Anti-Lymphoma Therapy [20]: 434; Evt/N, Time to Next Anti-Lymphoma Therapy [21]: 14/16; Median, Time to Next Anti-Lymphoma Therapy [21]: 418; Evt/N, Time to Next Anti-Lymphoma Therapy [22]: 23/27; Median, Time to Next Anti-Lymphoma Therapy [22]: 220; Evt/N, Time to Next Anti-Lymphoma Therapy [23]: 26/34; Median, Time to Next Anti-Lymphoma Therapy [23]: 327; Evt/N, Time to Next Anti-Lymphoma Therapy [24]: 17/22; Median, Time to Next Anti-Lymphoma Therapy [24]: 421; Evt/N, Time to Next Anti-Lymphoma Therapy (P27 % NUCLEI POSITIVE: 60-70, 3 Prior Lines of Therapy, IRC Review): 1/6; Evt/N, Time to Next Anti-Lymphoma Therapy [25]: 29/41; Median, Time to Next Anti-Lymphoma Therapy [25]: 655; Evt/N, Time to Next Anti-Lymphoma Therapy [26]: 16/18; Median, Time to Next Anti-Lymphoma Therapy [26]: 220; Evt/N, Time to Next Anti-Lymphoma Therapy [27]: 5/6; Median, Time to Next Anti-Lymphoma Therapy [27]: 228; Evt/N, Time to Next Anti-Lymphoma Therapy [28]: 57/89; Median, Time to Next Anti-Lymphoma Therapy [28]: 649; Evt/N, Time to Next Anti-Lymphoma Therapy [29]: 60/88; Median, Time to Next Anti-Lymphoma Therapy [29]: 421; Evt/N, Time to Next Anti-Lymphoma Therapy [30]: 113/177; Median, Time to Next Anti-Lymphoma Therapy [30]: 533; Evt/N, Time to Next Anti-Lymphoma Therapy [31]: 103/153; Median, Time to Next Anti-Lymphoma Therapy [31]: 484; Evt/N, Time to Next Anti-Lymphoma Therapy [32]: 127/199; Median, Time to Next Anti-Lymphoma Therapy [32]: 533; Evt/N, Time to Next Anti-Lymphoma Therapy [33]: 54/79; Median, Time to Next Anti-Lymphoma Therapy [33]: 546; Evt/N, Time to Next Anti-Lymphoma Therapy [34]: 7/9; Median, Time to Next Anti-Lymphoma Therapy [34]: 225; Evt/N, Time to Next Anti-Lymphoma Therapy [35]: 3/3; Median, Time to Next Anti-Lymphoma Therapy [35]: 235; Evt/N, Time to Next Anti-Lymphoma Therapy [36]: 16/21; Median, Time to Next Anti-Lymphoma Therapy [36]: 232; Evt/N, Time to Next Anti-Lymphoma Therapy [37]: 19/29; Median, Time to Next Anti-Lymphoma Therapy [37]: 374; Evt/N, Time to Next Anti-Lymphoma Therapy [38]: 59/89; Median, Time to Next Anti-Lymphoma Therapy [38]: 550; Evt/N, Time to Next Anti-Lymphoma Therapy [39]: 69/117; Median, Time to Next Anti-Lymphoma Therapy [39]: 593; Evt/N, Time to Next Anti-Lymphoma Therapy [40]: 57/92; Median, Time to Next Anti-Lymphoma Therapy [40]: 552; Evt/N, Time to Next Anti-Lymphoma Therapy [41]: 51/72; Median, Time to Next Anti-Lymphoma Therapy [41]: 427; Evt/N, Time to Next Anti-Lymphoma Therapy [42]: 129/204; Median, Time to Next Anti-Lymphoma Therapy [42]: 505; Evt/N, Time to Next Anti-Lymphoma Therapy [43]: 113/179; Median, Time to Next Anti-Lymphoma Therapy [43]: 505; Evt/N, Time to Next Anti-Lymphoma Therapy [44]: 103/154; Median, Time to Next Anti-Lymphoma Therapy [44]: 484; Evt/N, Time to Next Anti-Lymphoma Therapy [45]: 10/11; Median, Time to Next Anti-Lymphoma Therapy [45]: 261; Evt/N, Time to Next Anti-Lymphoma Therapy [46]: 13/18; Median, Time to Next Anti-Lymphoma Therapy [46]: 409; Evt/N, Time to Next Anti-Lymphoma Therapy [47]: 54/85; Median, Time to Next Anti-Lymphoma Therapy [47]: 568; Evt/N, Time to Next Anti-Lymphoma Therapy [48]: 74/129; Median, Time to Next Anti-Lymphoma Therapy [48]: 537; Evt/N, Time to Next Anti-Lymphoma Therapy [49]: 109/176; Median, Time to Next Anti-Lymphoma Therapy [49]: 533; Evt/N, Time to Next Anti-Lymphoma Therapy (P65 INTENSITY CYTOPLASMIC SIGNAL: ≧2+, ≦65 years old, IRC Review): 101/152
